These results are taken from ChEMBL document CHEMBL4396870, “Pharmacological Chaperones for the Treatment of α-Mannosidosis” (J Med Chem, 2019).

For test [1], the target named is Beta-galactosidase (Escherichia coli) (UniProt Q8VNN2). The test can be described thus: Inhibition of Escherichia coli beta-galactosidase assessed as residual hydrolytic activity up to 2 mM after 10 to 30 mins by spectrophotometric analysis.
Test [2] addresses Alpha-galactosidase (Coffea arabica) (UniProt Q42656). The test can be described thus: Inhibition of green coffee alpha-galactosidase assessed as residual hydrolytic activity up to 2 mM after 10 to 30 mins by spectrophotometric analysis.
For test [3], the system named is Saccharomyces cerevisiae. Put plainly: Inhibition of yeast alpha-glucosidase assessed as residual hydrolytic activity up to 2 mM after 10 to 30 mins by spectrophotometric analysis.
For test [4], the system named is Aspergillus niger. The test can be described thus: Inhibition of Aspergillus niger amyloglucosidase assessed as residual hydrolytic activity up to 2 mM after 10 to 30 mins by spectrophotometric analysis.
The test system of test [5] is Saccharomyces cerevisiae. The test can be described thus: Inhibition of yeast isomaltase assessed as residual hydrolytic activity up to 2 mM after 10 to 30 mins by spectrophotometric analysis.
Test [6] relates to Helix pomatia. Put plainly: Inhibition of Helix pomatia beta-mannosidase assessed as residual hydrolytic activity up to 2 mM after 10 to 30 mins by spectrophotometric analysis.
Test [7] can be described thus: Inhibition of Helix pomatia beta-mannosidase assessed as residual hydrolytic activity after 10 to 30 mins by spectrophotometric analysis. The following applies: read-out: Ki.
Test [8] in a line: Inhibition of bovine liver beta-glucosidase assessed as residual hydrolytic activity after 10 to 30 mins by spectrophotometric analysis. The arrangement: species or system Bos taurus.
In test [9] the target is T1, Alpha-mannosidase (Canavalia ensiformis, UniProt C0HJB3).
T1 sequence (C0HJB3 whole entry): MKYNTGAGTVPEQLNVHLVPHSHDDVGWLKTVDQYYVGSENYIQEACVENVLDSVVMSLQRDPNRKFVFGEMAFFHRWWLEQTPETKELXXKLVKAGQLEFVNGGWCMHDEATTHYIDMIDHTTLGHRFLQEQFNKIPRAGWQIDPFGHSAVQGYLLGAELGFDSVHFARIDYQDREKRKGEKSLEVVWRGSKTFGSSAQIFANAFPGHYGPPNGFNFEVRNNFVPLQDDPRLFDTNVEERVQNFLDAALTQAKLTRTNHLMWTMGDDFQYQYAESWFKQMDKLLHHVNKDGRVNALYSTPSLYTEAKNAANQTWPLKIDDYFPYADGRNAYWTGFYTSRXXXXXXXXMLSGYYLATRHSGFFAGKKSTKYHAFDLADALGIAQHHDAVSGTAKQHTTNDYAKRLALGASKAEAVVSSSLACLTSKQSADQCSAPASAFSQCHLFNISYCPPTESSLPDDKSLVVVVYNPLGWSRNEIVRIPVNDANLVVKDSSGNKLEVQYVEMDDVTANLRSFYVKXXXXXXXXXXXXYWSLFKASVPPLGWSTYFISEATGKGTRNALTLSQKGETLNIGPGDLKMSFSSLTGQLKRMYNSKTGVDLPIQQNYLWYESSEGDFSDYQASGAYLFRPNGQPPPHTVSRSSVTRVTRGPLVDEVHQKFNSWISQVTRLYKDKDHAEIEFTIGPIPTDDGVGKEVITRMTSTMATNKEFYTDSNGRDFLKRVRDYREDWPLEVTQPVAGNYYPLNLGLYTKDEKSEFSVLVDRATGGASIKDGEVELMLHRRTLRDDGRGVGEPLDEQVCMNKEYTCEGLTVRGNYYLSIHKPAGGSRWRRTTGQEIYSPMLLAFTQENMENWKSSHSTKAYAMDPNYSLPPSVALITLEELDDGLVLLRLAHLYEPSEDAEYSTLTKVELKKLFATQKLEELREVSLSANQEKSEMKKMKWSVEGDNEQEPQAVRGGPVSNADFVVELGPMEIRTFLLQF
Put plainly: Inhibition of jack bean Lysosomal alpha-mannosidase assessed as residual hydrolytic activity after 10 to 30 mins by spectrophotometric analysis.

Test [10] is described as follows: Inhibition of almond beta-glucosidase assessed as residual hydrolytic activity after 10 to 30 mins by spectrophotometric analysis. Set-up: species or system Prunus dulcis.

Calls of active or inactive are those of the source. The rule behind the calls is not given here.

Sequence of Beta-galactosidase (Escherichia coli) (Q8VNN2 whole entry, looked up): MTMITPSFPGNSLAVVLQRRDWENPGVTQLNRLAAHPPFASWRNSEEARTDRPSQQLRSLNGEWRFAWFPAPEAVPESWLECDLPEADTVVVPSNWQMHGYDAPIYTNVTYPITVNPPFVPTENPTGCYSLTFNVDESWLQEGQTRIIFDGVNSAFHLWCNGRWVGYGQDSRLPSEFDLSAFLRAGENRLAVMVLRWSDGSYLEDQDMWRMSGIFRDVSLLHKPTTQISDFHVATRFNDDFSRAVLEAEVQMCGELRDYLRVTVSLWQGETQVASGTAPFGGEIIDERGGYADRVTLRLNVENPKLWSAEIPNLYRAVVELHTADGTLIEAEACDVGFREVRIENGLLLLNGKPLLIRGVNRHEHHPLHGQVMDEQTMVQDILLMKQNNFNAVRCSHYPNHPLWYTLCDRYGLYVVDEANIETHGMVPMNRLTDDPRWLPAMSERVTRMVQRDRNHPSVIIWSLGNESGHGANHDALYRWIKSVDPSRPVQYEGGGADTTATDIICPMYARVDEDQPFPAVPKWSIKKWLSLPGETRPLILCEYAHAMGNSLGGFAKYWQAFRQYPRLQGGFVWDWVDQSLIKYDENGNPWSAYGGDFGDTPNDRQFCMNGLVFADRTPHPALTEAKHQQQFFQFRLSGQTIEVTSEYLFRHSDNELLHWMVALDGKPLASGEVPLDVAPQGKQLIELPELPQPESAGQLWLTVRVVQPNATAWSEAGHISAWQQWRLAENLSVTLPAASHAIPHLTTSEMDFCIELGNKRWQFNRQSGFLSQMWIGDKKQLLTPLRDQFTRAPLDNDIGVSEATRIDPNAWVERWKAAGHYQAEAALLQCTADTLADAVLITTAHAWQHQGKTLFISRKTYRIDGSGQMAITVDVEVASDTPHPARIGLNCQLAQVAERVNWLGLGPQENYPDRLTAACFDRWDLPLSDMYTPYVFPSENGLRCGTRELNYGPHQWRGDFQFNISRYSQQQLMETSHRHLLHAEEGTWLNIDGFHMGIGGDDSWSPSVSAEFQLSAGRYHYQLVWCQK
Sequence of Alpha-galactosidase (Coffea arabica) (Q42656 16-378 limits assumed): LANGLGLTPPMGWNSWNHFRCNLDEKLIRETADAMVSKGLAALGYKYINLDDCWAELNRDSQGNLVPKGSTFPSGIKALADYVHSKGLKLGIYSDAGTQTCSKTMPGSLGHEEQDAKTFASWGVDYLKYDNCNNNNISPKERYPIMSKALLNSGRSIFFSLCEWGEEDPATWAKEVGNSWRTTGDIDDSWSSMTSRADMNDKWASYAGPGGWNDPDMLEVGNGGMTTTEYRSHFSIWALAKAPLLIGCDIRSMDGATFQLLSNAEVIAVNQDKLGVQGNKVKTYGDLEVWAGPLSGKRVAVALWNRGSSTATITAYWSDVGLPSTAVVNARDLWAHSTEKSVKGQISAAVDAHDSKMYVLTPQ

With `O=C1OC[C@@H]2[C@@H](O)[C@H](O)[C@H](O)[C@@H](NCCCCCCn3cc(COC[C@H]4O[C@@H]5O[C@H]6[C@H](O)[C@@H](OCc7cn(CCCCCCN[C@@H]8[C@@H](O)[C@@H](O)[C@H](O)[C@H]9COC(=O)N98)nn7)[C@@H](O[C@H]7[C@H](O)[C@@H](OCc8cn(CCCCCCN[C@@H]9[C@@H](O)[C@@H](O)[C@H](O)[C@H]%10COC(=O)N%109)nn8)[C@@H](O[C@H]8[C@H](O)[C@@H](OCc9cn(CCCCCCN[C@@H]%10[C@@H](O)[C@@H](O)[C@H](O)[C@H]%11COC(=O)N%11%10)nn9)[C@@H](O[C@H]9[C@H](O)[C@@H](OCc%10cn(CCCCCCN[C@@H]%11[C@@H](O)[C@@H](O)[C@H](O)[C@H]%12COC(=O)N%12%11)nn%10)[C@@H](O[C@H]%10[C@H](O)[C@@H](OCc%11cn(CCCCCCN[C@@H]%12[C@@H](O)[C@@H](O)[C@H](O)[C@H]%13COC(=O)N%13%12)nn%11)[C@@H](O[C@H]%11[C@H](O)[C@@H](OCc%12cn(CCCCCCN[C@@H]%13[C@@H](O)[C@@H](O)[C@H](O)[C@H]%14COC(=O)N%14%13)nn%12)[C@@H](O[C@H]4[C@H](O)[C@H]5OCc4cn(CCCCCCN[C@@H]5[C@@H](O)[C@@H](O)[C@H](O)[C@H]%12COC(=O)N%125)nn4)O[C@@H]%11COCc4cn(CCCCCCN[C@@H]5[C@@H](O)[C@@H](O)[C@H](O)[C@H]%11COC(=O)N%115)nn4)O[C@@H]%10COCc4cn(CCCCCCN[C@@H]5[C@@H](O)[C@@H](O)[C@H](O)[C@H]%10COC(=O)N%105)nn4)O[C@@H]9COCc4cn(CCCCCCN[C@@H]5[C@@H](O)[C@@H](O)[C@H](O)[C@H]9COC(=O)N95)nn4)O[C@@H]8COCc4cn(CCCCCCN[C@@H]5[C@@H](O)[C@@H](O)[C@H](O)[C@H]8COC(=O)N85)nn4)O[C@@H]7COCc4cn(CCCCCCN[C@@H]5[C@@H](O)[C@@H](O)[C@H](O)[C@H]7COC(=O)N75)nn4)O[C@@H]6COCc4cn(CCCCCCN[C@@H]5[C@@H](O)[C@@H](O)[C@H](O)[C@H]6COC(=O)N65)nn4)nn3)N12`, the inhibition result in [1], in [2], in [3], in [4] and in [5] was “Active” throughout. Moreover, in test [6], the result was Active.

In the case of `N[C@@H]1[C@@H](O)[C@@H](O)[C@H](O)[C@H]2COC(=O)N12`, the Ki (as a rule, the equilibrium dissociation constant of an inhibitor or competing ligand from its target) is 20 to 200 µM in [7], 20 to 200 µM in test [8], 7 µM in [9] and 20 to 200 µM in [10].
